Results reported in patent US10725049B2, “Methods of detecting and measuring glutamine and analogues thereof, and methods related thereto” (Victoria Link Limited, priority 2013, dated 2020).

How the values were obtained:
BpsA [1] = target: T1, BpsA (Streptomyces lavendulae, UniProt Q1MWN4); test: Relative reaction rate of L-glutamine versus analogue with BpsA; assay type: biochemical; conditions: L-glutamine faster than an analogue (e.g. L-glycyl glutamine)
Method: Without wishing to be bound by theory, it is believed that BpsA or a related enzyme can be used to measure both L-glutamine and a glutamine analogue (e.g., L-glycyl glutamine) in the same sample. Experiments have shown that L-glutamine reacts much faster with BpsA (˜100-1000 fold) than an analogue. Thus, it would be possible to incubate the sample for a short period (e.g., 2 minutes), remove the blue pigment, and measure the pigment levels to calculate L-glutamine levels. It would then be possible to wait for a further longer period (e.g., 8 hours), and measure the remaining blue pigment to calculate analogue levels (e.g., L-glycyl glutamine). It is expected that there would be little contamination of the glutamine-based product by the analogue-based product based on the enzymatic profile for BpsA.

BpsA [2] = target: T1, BpsA; test: BpsA end-point assay measuring L-glutamine in complex biological media (indigoidine re-solubilised in DMSO, A590); conditions: for Spiked − unspiked (μM L-glutamine +/− 1 std dev): 300 μM spike
Method: For improved accuracy, reproducibility, and robustness, it is generally preferable to use an end-point assay over a kinetic assay. An end-point assay for BpsA was designed and carried out as follows. In these experiments, 40 μL indigoidine-producing reactions were run until all glutamine present was consumed, and then all the indigoidine was solubilised by adding 190 μL of the organosulfur solvent dimethyl sulfoxide (DMSO).
Indigoidine synthesis reactions were initiated by addition of 10 μL of each L-glutamine concentration standard in triplicate. […] The 96 plate was then mixed at 1000 rpm for 10 seconds and incubated at room temperature for 45 minutes to enable complete reaction of all L-glutamine present in each well. After this, 190 μL of DMSO heated to 50° C. was added to each well to solubilise the indigoidine. The 96 well plate was then incubated at room temperature with shaking at 2500 rpm for 10 minutes. […] This yielded a standard curve with an excellent straight line fit (FIG. 4).
For these experiments, standard samples (10 μL per well) were prepared in triplicate in ddH2O as per Example 4 at the following concentrations: 1000 μM, 800 μM, 600 μM, 400 μM, 200 μM, and 0 μM. Alongside these were aliquoted paired triplicate samples (10 μL per well) of the following media: adult bovine serum (purchased from Sigma-Aldrich), human urine, LB, DMEM, and ddH2O. For each medium, one of the two paired triplicate sets was spiked (amended) with 300 μM L-glutamine, while the other was left unspiked. Indigoidine synthesis was initiated by addition of 30 μL reaction mix (as described in Table 4) to each sample-containing well. The 96 well plate was then mixed at 1000 rpm for 10 seconds and incubated at room temperature for one hour, after which 180 μL of DMSO heated to 50° C. was added to each well. The plate was then shaken at 2500 rpm for 10 minutes to fully solubilise the indigoidine.
It was observed that the serum containing wells went immediately cloudy upon addition of DMSO, preventing meaningful A590 readings from being obtained for those samples. In all other cases, a single A590 reading for each well was recorded. For each sample, triplicate A590 values were averaged and this value was used to quantify glutamine levels based on the standard curve generated from the standard samples. With the exception of the ddH2O, it was unknown what the starting concentration of L-glutamine was in each medium being tested. However, the comparison of measured L-glutamine levels in spiked versus unspiked samples for each medium enabled assessment of the accuracy of the BpsA end-point assay in measuring L-glutamine concentrations in that medium.

T1 sequence (Q1MWN4 whole entry): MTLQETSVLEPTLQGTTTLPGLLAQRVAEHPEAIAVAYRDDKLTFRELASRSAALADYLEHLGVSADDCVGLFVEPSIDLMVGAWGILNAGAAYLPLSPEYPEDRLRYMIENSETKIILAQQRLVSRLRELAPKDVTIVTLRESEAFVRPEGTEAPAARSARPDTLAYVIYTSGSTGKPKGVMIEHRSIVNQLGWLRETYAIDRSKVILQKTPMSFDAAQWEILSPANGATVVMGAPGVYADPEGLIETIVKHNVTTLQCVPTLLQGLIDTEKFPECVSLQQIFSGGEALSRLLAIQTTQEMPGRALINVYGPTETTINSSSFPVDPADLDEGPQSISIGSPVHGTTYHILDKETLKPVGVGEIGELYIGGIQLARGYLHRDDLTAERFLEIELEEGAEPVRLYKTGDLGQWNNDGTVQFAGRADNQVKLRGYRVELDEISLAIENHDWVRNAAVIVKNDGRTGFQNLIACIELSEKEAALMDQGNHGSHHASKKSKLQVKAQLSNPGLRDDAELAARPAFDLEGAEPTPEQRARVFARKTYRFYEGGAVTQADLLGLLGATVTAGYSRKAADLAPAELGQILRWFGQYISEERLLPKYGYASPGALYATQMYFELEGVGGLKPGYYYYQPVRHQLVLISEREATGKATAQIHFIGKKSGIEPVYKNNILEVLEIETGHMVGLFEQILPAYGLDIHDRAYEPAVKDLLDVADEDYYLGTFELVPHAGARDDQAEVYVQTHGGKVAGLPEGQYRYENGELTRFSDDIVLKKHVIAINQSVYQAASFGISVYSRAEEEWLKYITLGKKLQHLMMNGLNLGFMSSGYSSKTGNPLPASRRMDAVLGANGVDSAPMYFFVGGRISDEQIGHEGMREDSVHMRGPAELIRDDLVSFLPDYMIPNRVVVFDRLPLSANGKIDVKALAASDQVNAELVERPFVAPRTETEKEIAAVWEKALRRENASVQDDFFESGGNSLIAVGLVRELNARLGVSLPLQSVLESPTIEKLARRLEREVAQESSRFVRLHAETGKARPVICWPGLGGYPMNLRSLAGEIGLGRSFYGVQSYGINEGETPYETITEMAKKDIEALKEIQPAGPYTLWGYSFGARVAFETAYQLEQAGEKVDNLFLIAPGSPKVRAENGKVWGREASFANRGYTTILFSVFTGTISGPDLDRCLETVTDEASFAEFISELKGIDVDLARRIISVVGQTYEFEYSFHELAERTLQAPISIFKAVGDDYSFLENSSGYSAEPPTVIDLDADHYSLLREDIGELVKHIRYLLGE

NC(=O)CC[C@H](N)C(=O)O [L-glutamine]
Reaction rate with BpsA relative to an analogue (BpsA [1]): 100-1000 fold | Spiked sample measurement (μM L-glutamine +/− 1 std dev) (BpsA [2]; DMEM spiked with 300 μM L-glutamine, standard curve in ddH2O): 427.4 ± 4.6 µM | Unspiked sample measurement (μM L-glutamine +/− 1 std dev) (BpsA [2]; DMEM): 20.3 ± 2.7 µM | Spiked − unspiked (μM L-glutamine +/− 1 std dev) (BpsA [2]; DMEM): 407.0 ± 5.4 µM | Spiked sample measurement (μM L-glutamine +/− 1 std dev) (BpsA [2]; LB spiked with 300 μM L-glutamine, standard curve in ddH2O): 377.9 ± 14.1 µM | Unspiked sample measurement (μM L-glutamine +/− 1 std dev) (BpsA [2]; LB): 49.6 ± 5.3 µM | Spiked − unspiked (μM L-glutamine +/− 1 std dev) (BpsA [2]; LB): 328.1 ± 15.2 µM | Spiked sample measurement (μM L-glutamine +/− 1 std dev) (BpsA [2]; ddH2O spiked with 300 μM L-glutamine): 319.0 ± 5.4 µM | Spiked − unspiked (μM L-glutamine +/− 1 std dev) (BpsA [2]; ddH2O): 319.0 ± 5.4 µM | Spiked sample measurement (μM L-glutamine +/− 1 std dev) (BpsA [2]; human urine spiked with 300 μM L-glutamine, standard curve in ddH2O): 295.8 ± 7.1 µM | Unspiked sample measurement (μM L-glutamine +/− 1 std dev) (BpsA [2]; human urine): 71.4 ± 23.6 µM | Spiked − unspiked (μM L-glutamine +/− 1 std dev) (BpsA [2]; human urine): 224.4 ± 24.9 µM
